Reference: patent US5585358A, “Derivatives of valproic acid amides and 2-valproenoic acid amides, method of making and use thereof as anticonvulsant agents” (Yissum Research Development Corporation of the Hebrew …, priority 1993, dated 1996)
Where two headings read alike, the source gives them in different places.

Tests used:
[1] = rat p.o.; literature values; N.E. = not effective; cited from earlier work
[2] = mice i.p., literature values, N.E. = not effective, cited from earlier work
[3] = literature values; cited from earlier work
[4] = rat p.o.; literature values; cited from earlier work
[5] = rat, in vivo, po; cited from earlier work
[6] = maximal electroshock (MES) test, mice i.p.; type: in vivo; details: for activity in MES model: doses up to 300 mg/kg
Text: Convulsions were induced in mice

[7] = electrical kindling model, rats p.o.; type: in vivo; details: po; rat p.o.
Text: (§1) N-(2-Propylpentanoyl)glycinamide (hereinafter compound 1) was further tested in two additional models. The third model, electrical kindling of rats, has been known to show efficacy of antiepileptic agents against complex partial seizures that evolve into generalized motor seizures. In these tests, rats were electrically stimulated via corneal electrodes twice daily for approximately 5 days and then once daily for an additional 10 days. Once the seizure criteria, as described by R. J. Racine, et al., Electroenceph. […] In addition, compound 1 was also tested in the subcutaneous bicuculline model (s.c. Bic).

[8] = subcutaneous bicuculline model (s.c. Bic), mice; type: in vivo
Text: as §1

in vivo = details: mouse, ip
[9] = neurotoxicity in mice (rotorod ataxia test)
Protocol: (§4) Neurotoxicity of the claimed agents was also assessed in mice (i.p. adminstration) by the rotorod ataxia test and also in some cases in rats (p.o. administration) by the positional sense test and gait and stance test.

[10] = neurotoxicity in rats (positional sense test and gait and stance test); type: in vivo; details: rat p.o.
Protocol: as §4

[11] = subcutaneous pentylenetetrazol (s.c. Met) seizure threshold test, mice i.p.; type: in vivo; details: for activity in s.c. Met model: doses up to 300 mg/kg
Text: Convulsions were induced in mice

[12] = type: in vivo, rat; design: key to Latency, Session I / Latency, Session II: latency in seconds for avoiding a potential shock
Protocol: Test was performed on days 16-17 (session 1) and 22-23 (session 2) after initiation of drug treatment. Better performance is indicated by an increase in avoidance score, a decrease in latency time, and an increase in the number of crossings.
(§2) The studies test for the level of motivation, association and short and long-term memory. The specific studies were the effect of compound 1 on the performance of rats in the locomotor test and passive and active response tests.
The conditioned avoidance response (active avoidance test) of rats was determined in a Hugo-Basile automatic conditioning apparatus, which consists of a shuttle box with two separate floor grids. In this apparatus the rats are conditioned to jump from one side of the box to the other side. The conditioning is a 10 sec stimulus consisting of a light and electric buzzer. […] The session is then repeated with the same rats 7 days later. Experiments were carried out on days 16-17 and 22-23 from the start of drug treatment, and each rat received 60 trials with a 30 sec interval between each trial.
The following parameters were recorded: a) the number of potential shocks successfully avoided; b) the latency response in seconds for avoiding a potential shock; and c) the total number of crossings made throughout the trials. In this test, a better performance is indicated by an increase in the avoidance of an electric shock, a decrease in the latency time to jump to the other side of the cage, and an increase in the number of times the rats crossed to the other side of the cage.
Scores in the active avoidance test (conditioned avoidance response) of
rats treated with compound 1 and related drugs. The tests in the first
session were performed on days 16-17 from initiation of drug
administration. Those in session II were performed on days 22-23, that is
7 days following session I. Number of rats in a group are given in […]

[13] = type: in vivo, rat
Protocol: Tests were performed on day 10 after drug treatment. Latency, in seconds, represents response time to entry into dark compartment. Maximum latency is 300 sec. Longer latencies represent improved performance. Bars represent mean standard error (SEM).
as §2
To measure passive avoidance responses, tests were performed on days 10, 12, 14, 20, and 26 after initiation of drug treatment. The apparatus consisted of a lit chamber that can be separated from a dark chamber by a sliding door. In the experiment, a rat is placed in a lit chamber for 30 sec, the door is then opened and the rat moves into the dark chamber with latency that is recorded. Upon entry into the dark chamber, the door is shut and a 0.3 mA footshock is delivered for 3 sec. Retention of the experience is determined after 48 hours by repeating the test and recording the latency. The maximum latency was arbitrarily assigned the value of 300 sec. Longer latencies are taken as a measure of improved memory.

[14] = maximal electroshock (MES) test, rat p.o.; type: in vivo; details: for ED100: Rattus norvegicus, rats, read-out: minimum dose giving full protection against seizures in the MES test
Text: (§3) The first model, the subcutaneous pentylenetetrazol (s.c. Met) seizure threshold test, is a standard screening procedure to show efficacy for agents against absence seizures. The second model, the maximal electroshock (MES) test, is used to show efficacy for antiepileptic agents against generalized seizures. In these studies, convulsions were inhibited or prevented in mice after intraperitoneal (i.p.) administration and/or in rats after oral (p.o.) administration of the compounds.
as §1
and rats by subcutaneous administration of pentylenetetrazol (s.c. Met
test) or by electrical stimulation (MES test). N.E. = not effective.

[15] = type: in vivo, rat; remark: listed apart in the source
Protocol: as §2
In the locomotor test, motor activity was recorded 8 to 9 days after the beginning of drug treatment. Locomotion scores were recorded in cages (25×26cm) having a grid of infra-red beams at 4 cm intervals. Two categories of movements were recorded: small movements (those originating in stationary activities such as grooming and scratching), and big movements (those resulting in ambulation and recorded as the simultaneous crossing of more than two beams). Since rats are nocturnal animals, recordings were usually made between 18:00 PM-6:00 AM.
Activity scores of drugtreated rats, measured in activity cages on days
8-9 after initiation of daily oral dosing with the given drug. Figures ar
number of crossings ± SEM. Number of rats per group are given in […]

[16] = cognitive impairment tests in rats (locomotor, passive and active response tests); type: in vivo, rat; details: at minimum dose giving full protection in MES test
Text: A major neurological side effect observed in patients on treatment with antiepileptic agents is cognitive impairment. […] Results from the models used are taken as indicators of major constituents of human cognition.
as §2

[17] = screen for protection against chemically and electrically induced convulsions (at least two models of epilepsy); type: in vivo; details: mice i.p. and/or rats p.o.; MES, s.c. Met, s.c. Bic, electrical kindling
Text: as §3, §1

[18] = rat p.o.; literature values; cited from earlier work; remark: listed apart in the source
[19] = background literature; cited from earlier work
[20] = mice i.p.; literature values; cited from earlier work
[21] = median lethal dose in mice; details: mouse, in vivo, ip
[22] = rats, days 16-17, compound 1 200, carbamazepine 15, Na valproate 500 mg/kg
[23] = rats, days 22-23, compound 1 200, carbamazepine 15, Na valproate 500 mg/kg
[24] = rats, daily oral dosing, days 8-9, compound 1 200 mg/kg, Na Valproate 500 mg/kg, ± SEM

O=C1NC(=O)C(c2ccccc2)(c2ccccc2)N1 [Phenytoin]
ED50, s.c. MET model [1]: N.E.
ED50, s.c. MET model [2]: N.E.
efficacy in s.c. Bic model [3]: not effective
ED50, MES model [4]: 29.8 mg/kg
TD50 (median neurological toxic dose) [5]: > 3000 mg/kg

CCCC(CCC)C(=O)NCC(N)=O [Compound 1, N-(2-n-Propylpentanoyl)glycinamide]
PI (protective index, TD50/ED50), MES model [6]: 2.4
ED50 ([6]; Mus musculus, ip, read-out: ED50, MES model): 152 mg/kg
ED50 [7]: 162 mg/kg
protection from seizures, s.c. Bic model [8]: full protection from seizures in mice, at a dose that was approximately that of literature values for the ED50 for VPA
LD50 (in vivo): > 4000 mg/kg
TD50 compared with VPA ([9]; mice i.p., vs VPA): significantly higher for compound 1 (less neurotoxic)
TD50 ([9]; mouse, in vivo, ip): 369 mg/kg
TD50 ([10]; in vivo, po, read-out: TD50 (median neurological toxic dose)): > 1000 mg/kg
TD50 (median neurological toxic dose) [10]: > 1000 mg/kg
PI (protective index, TD50/ED50), s.c. MET model [11]: 2.9
ED50 ([11]; Mus musculus, ip, read-out: ED50, s.c. MET model): 127 mg/kg
active avoidance performance ([12]; rats, compared with VPA group, compound 1 200 mg/kg, VPA 500 mg/kg, daily oral): significantly better performance than the VPA treated group
Avoidance, Session I [12, 22]: 14 ± 7
Crossings, Session I [12, 22]: 38 ± 13
Latency, Session I [12, 22]: 21 ± 3 s
Avoidance, Session II [12, 23]: 12 ± 7
Crossings, Session II [12, 23]: 35 ± 9
Latency, Session II [12, 23]: 22 ± 3 s
passive avoidance performance (retention) ([13]; rats, day 16, compound 1 200 mg/kg, VPA 500 mg/kg, daily oral): retained their acquired knowledge to avoid the electric shock as well as the control group
ED100 ([14]; po): 200 mg/kg
ED50 ([14]; po, rat p.o., read-out: ED50, MES model): 73 mg/kg
Pi (protective index, TD50/ED50), MES model ([14]; rat p.o.): > 13.7
ED50 in MES model, times lower (more efficacious) than VPA ([14]; rat p.o., vs VPA): seven
ED50 in MES model relative to phenytoin ([14]; rat p.o., vs phenytoin): approximately twice
Big mov. (activity score), day activity 14.00-20.00 h [15, 24]: 2402 ± 307 number of crossings
Big mov. (activity score), night activity 20.00-08.00 h [15, 24]: 7217 ± 765 number of crossings
Total mov. (activity score), day activity 14.00-20.00 h [15, 24]: 7749 ± 1188 number of crossings
Total mov. (activity score), night activity 20.00-08.00 h [15, 24]: 22568 ± 2209 number of crossings
motor activity in locomotor test ([15]; rats, vs control): no significant difference in motor activity between the control and compound 1
cognitive impairment compared with VPA [16]: less cognitive impairment than VPA
anticonvulsant activity [17]: showed anticonvulsant activity in rodents in all of the above mentioned tests

NC(=O)N1c2ccccc2C=Cc2ccccc21 [Carbamizepine]
ED50, s.c. MET model [1]: N.E.
ED50, s.c. MET model [2]: N.E.
Avoidance, Session I [12, 22]: 7 ± 4
Crossings, Session I [12, 22]: 18 ± 10
Latency, Session I [12, 22]: 27 ± 2 s
Avoidance, Session II [12, 23]: 2 ± 2
Crossings, Session II [12, 23]: 11 ± 8
Latency, Session II [12, 23]: 29 ± 1 s
ED50, MES model [4]: 8.5 mg/kg
ED50, electrical kindling model [18]: 28.9 mg/kg

CCCC(CCC)C(=O)NCC(=O)O [valproylglycine]
activity in MES model [6]: neither valproylglycine nor milacemide was active
activity in s.c. Met model [11]: neither valproylglycine nor milacemide was active

CCCC(CCC)C(=O)O [Na Valproate]
Avoidance, Session I ([12]; rat, in vivo): 2 ± 3
Avoidance, Session II ([12]; rat, in vivo): 6 ± 5
Crossings, Session I ([12]; rat, in vivo): 13 ± 2
Crossings, Session II ([12]; rat, in vivo): 16 ± 9
Latency, Session I ([12]; rat, in vivo): 28 ± 0.4
Latency, Session II ([12]; rat, in vivo): 27 ± 2
Big mov. (activity score), day activity 14.00-20.00 h ([15]; rat, in vivo): 2784 ± 352 number of crossings
Big mov. (activity score), night activity 20.00-08.00 h ([15]; rat, in vivo): 5832 ± 854 number of crossings
Total mov. (activity score), day activity 14.00-20.00 h ([15]; rat, in vivo): 8963 ± 1554 number of crossings
Total mov. (activity score), night activity 20.00-08.00 h ([15]; rat, in vivo): 18876 ± 2039 number of crossings

CCCCCNCC(N)=O [milacemide]
activity in MES model [6]: neither valproylglycine nor milacemide was active
activity in s.c. Met model [11]: neither valproylglycine nor milacemide was active

CCCC(CCC)C(=O)O [VPA, 2-propylpentanoic acid]
ED50, s.c. MET model [1]: 180 mg/kg
adverse effects [19]: considerable adverse effects including hepatotoxicity and teratogenicity
ED50, s.c. MET model [2]: 146 mg/kg
ED50, s.c. MET model ([2]; listed as Valproic acid): 149 mg/kg
active avoidance performance compared with control group ([12]; rat, in vivo): worse performance
ED50, MES model [4]: 490 mg/kg
ED50, MES model [20]: 272 mg/kg
passive avoidance performance (retention) ([13]; rat, in vivo): performed much worse
LD50 [21]: 658 mg/kg
ED100 ([14]; po): 500 mg/kg
ED50, electrical kindling model [18]: 117 mg/kg
